Structures are written as SMILES. Values after ≈ are worked out from the molar mass of the structure shown. Some results are limits rather than exact numbers.

Broadly, the solubility (kinetic) is solubility judged after dilution from a stock solution rather than from solid.

The conditions of this data set: buffer; pH 7.4; 200.0 µM.
As to `COc1ccc(Cc2noc(-c3ccc([N+](=O)[O-])cc3)n2)cc1OC`, the kinetic solubility stood at 2 µg/mL (≈ 5.86 µM).
Regarding `Cc1ccc(C(=O)N(C)CC(=O)Nc2ccc(F)c(F)c2F)o1`, the kinetic solubility is > 48.9 µg/mL.
`CCc1ccc(CNC(=O)CCc2cn(C)c3ccccc23)cc1` had a solubility (kinetic) of 1.2 µg/mL (≈ 3.74 µM).
Take `COC(CNS(=O)(=O)c1cccc2nonc12)OC`: the solubility (kinetic) was > 43.1 µg/mL.
Take `COc1ccccc1Oc1ccc2c(c1)C(=O)N(CC(=O)O)C2=O`: the kinetic solubility was > 49.1 µg/mL.
Take `Cc1nc2ccccc2c2c1CC(C(C)(Cl)Br)O2` (stereo unspecified): the solubility (kinetic) is 26.7 µg/mL (≈ 81.7 µM).
Consider `Cc1cccc(NC(=O)COC(=O)c2ccc3nc(C)c(C)nc3c2)c1`, for which the solubility (kinetic) was found to be 3.6 µg/mL (≈ 10.3 µM).
`CC(Oc1cccnc1[N+](=O)[O-])C(=O)Nc1ccc(Cl)cn1` (stereo unspecified) had a kinetic solubility of 17 µg/mL (≈ 52.7 µM).
On to `COc1cc(NC(=O)c2ccc(S(=O)(=O)N(C)c3ccccc3)cc2)cc(OC)c1`, for which the solubility (kinetic) stood at 5 µg/mL (≈ 11.7 µM).
To `C#CC(C)(C)NC(=O)c1ccc(-c2ccccc2F)cc1` belongs < 0.6 µg/mL.
The compound `COc1ccc(OC)c(C2=NOC(C(=O)NCc3cccnc3)C2)c1` (stereo unspecified) gave a kinetic solubility of 47.8 µg/mL (≈ 140 µM).
Compound `O=C(O)C(NS(=O)(=O)c1cccc2nsnc12)c1ccccc1` (stereo unspecified) gave a solubility (kinetic) of 48.4 µg/mL (≈ 139 µM).
Regarding `O=C(NC(=S)Nc1cccc2ncccc12)c1ccco1`, the kinetic solubility came out at 13.3 µg/mL (≈ 44.7 µM).
As for `CC(=O)c1c(C)[nH]c(C(=O)COC(=O)CCNS(=O)(=O)c2ccc(C)c(C)c2)c1C`, the solubility (kinetic) is 11 µg/mL (≈ 25.3 µM).
With `CCOc1ccccc1NC(=O)CN1C(=O)CSC(C)C1=O` (stereo unspecified), the kinetic solubility was > 48.4 µg/mL.
To `CCOc1ccc(C(=S)N2CCCC2)cc1OCC` belongs 41.8 µg/mL (≈ 150 µM); to `COc1ccc(OC)c(S(=O)(=O)NC2CC2)c1`, > 38.6 µg/mL.
To `Cc1ccc(NC(=O)NCC2CC2(Cl)Cl)cc1` (stereo unspecified) belongs 9.1 µg/mL (≈ 33.3 µM); to `COc1ccccc1NC(=O)c1c(O)c2ccccc2[nH]c1=O`, 1.2 µg/mL (≈ 3.87 µM); to `COC(=O)c1cc(OC)c(OC)c(OC)c1[N+](=O)[O-]`, 38.5 µg/mL (≈ 142 µM).
For `O=C(COc1ccc2c(-c3ccccc3)cc(=O)oc2c1)NC(Cc1c[nH]c2ccccc12)C(=O)O` (stereo unspecified), the kinetic solubility is > 72.4 µg/mL.
To `O=c1c2oc3ccccc3c2ncn1Cc1cccc(Cl)c1` belongs < 0.3 µg/mL.
Consider `CN(C)CCCN1C(=O)C2CCc3[nH]c4ccccc4c3C2C1=O` (stereo unspecified), for which the kinetic solubility was > 48.8 µg/mL.
The compound `COc1ccc(CCNC(=O)/C=C/c2ccco2)cc1` returned a kinetic solubility of 38.9 µg/mL (≈ 143 µM).
Turning to `O=C(O)CCCNc1ccc(S(=O)(=O)N2CCCCC2)cc1`, the solubility (kinetic) was > 49 µg/mL.
In turn, `Cc1cccc(C)c1OCC(=O)Nc1ccc2c(c1)OCCO2` registered a kinetic solubility of 23.5 µg/mL (≈ 75 µM).
For the compound `CC(NC(=O)Cc1ccc(Br)cc1)c1ccccc1` (stereo unspecified), the solubility (kinetic) came to 9.7 µg/mL (≈ 30.5 µM).
Compound `CC(=O)N/C(=C/c1ccc2c(c1)OCO2)C(=O)N1CCOCC1` yielded a solubility (kinetic) of 45 µg/mL (≈ 141 µM).
As to `CCN(c1cccc2ccccc12)S(=O)(=O)c1cccs1`, the kinetic solubility was determined as 12.5 µg/mL (≈ 39.4 µM).
Under `CCOC(=O)c1sc(NC(=O)c2ccc3nc[nH]c3c2)nc1C` stands 3.7 µg/mL (≈ 11.2 µM); under `CCCCOc1ccc(C(=O)NCCOc2cccc(OC)c2)cc1`, 4 µg/mL (≈ 11.6 µM); under `CC(C)C(=O)Nc1cc2c3c(c1)CCN3C(=O)CC2`, 38.7 µg/mL (≈ 150 µM).
The compound `Cc1ccc(S(=O)(=O)NCC(=O)OCCOc2ccccc2F)cc1` gave a kinetic solubility of 21.5 µg/mL (≈ 58.5 µM).
Turning to `CN(C(=O)CSc1nccc(=O)[nH]1)C1CCCCC1`, the kinetic solubility was > 42.2 µg/mL.
`O=[N+]([O-])c1ccc(Cl)c(C[n+]2cccc3ccccc32)c1.[Br-]` returned a solubility (kinetic) of 56.9 µg/mL.
`N#CCSc1nc(-c2ccccc2)nc2ccccc12`: the kinetic solubility is < 0.2 µg/mL.
Under `COc1ccc2nc(NC(=O)NC3CCCCC3)sc2c1` stands < 0.2 µg/mL; under `O=C1c2ccccc2-c2cccc(C(=O)N3CCCCC3)c21`, 36.7 µg/mL (≈ 126 µM).
Under `CC(CNC(=O)c1ccc(N)cc1)NC(=O)c1ccc(N)cc1` (stereo unspecified) stands 42.8 µg/mL (≈ 137 µM); under `CCc1nc2ccc(C(=O)Nc3ccc4c(c3)OCO4)cc2nc1CC`, 1.6 µg/mL (≈ 4.58 µM).
For `COCCOn1c(SCCOC)nc2ccccc2c1=O`, the kinetic solubility was > 46.6 µg/mL.
Under `Cc1nn(C)c(C)c1NS(=O)(=O)c1ccc(N2CCCC2=O)cc1` stands > 52.3 µg/mL; under `COC(=O)c1cccc(NC(=O)CC2C(=O)NCCN2C(=O)Nc2cc(C)cc(C)c2)c1` (stereo unspecified), 13.1 µg/mL (≈ 29.9 µM).
Consider `COCn1cnc(-c2ccccc2)c1-c1ccccc1`, for which the solubility (kinetic) stood at 32.5 µg/mL (≈ 123 µM).
The compound `CC1CCCN(c2nc3nonc3nc2Nc2ccccc2F)C1` (stereo unspecified) had a kinetic solubility of 0.8 µg/mL (≈ 2.44 µM).
`CC(C)NCC(O)c1ccc(NS(C)(=O)=O)cc1.Cl` (stereo unspecified): the solubility (kinetic) is > 46.3 µg/mL.
Consider `CN1CC(=O)N=C1N.Cl`, for which the kinetic solubility is > 22.4 µg/mL.
Under `Cn1cccc1C(=O)OCc1nc2ccccc2c(=O)[nH]1` stands 29.6 µg/mL (≈ 104 µM); under `CCc1ccccc1NC(=O)[C@@H]1CCC(=O)N1C1OC(=O)c2ccccc21` (stereo partly specified), > 54.7 µg/mL; under `Cc1ccc2c(CN3CCCCC3C)cc(=O)oc2c1.Cl` (stereo unspecified), 35.6 µg/mL.
For the compound `O=C(Cn1c(=O)oc2ccc(Cl)cc21)NC1CCCCC1`, the solubility (kinetic) turned out to be 2.9 µg/mL (≈ 9.39 µM).
